Data from patent publication US20220280594A1, “APPLICATION OF POLYPEPTIDE OR DERIVATIVE THEREOF” (CHENGDU HUITAI BIOMEDICINE CO., LTD., priority 2019, published 2022).
Ends that are not written are not given here. PEG = not defined here

What was measured:
[1] = test system: human lung cancer cells (A549) subcutaneous xenograft; assay: lung cancer subcutaneous xenograft animal model, intratumoral injection; type: in vivo, mice (BALB/c-nu/nu); settings: intratumoral 5 mg/kg once every other day, 10 days; for Weight of tumor (g) (mean ± SD): control 1.45 ± 0.15; for Volume of tumor (mm^3) (mean ± SD): control 1269.32 ± 115.39
How it was run: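 Female BALB/c-nu/nu mice (4–6 weeks) inoculated subcutaneously with about 2×10^6 A549 cells; treatment started at tumour volume >100 mm^3. Peptides given intratumorally at 5 mg/kg every other day for 10 days (N1–N12) or 20 days (N13–N32); tumour weight and volume measured at dissection.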

[2] = test system: human liver cancer cells (HepG2); assay: scratch assay, migration of HepG2 cells; type: cell-based; settings: HepG2, 10 μM, 48 hours; control group 71.01 ± 6.63
How it was run: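 HepG2 monolayers scratched, then cultured 48 h in 2% FBS medium with test polypeptides at 10 μM versus PBS control, triplicate wells. Migration rate (%) computed from original versus current scratch width in images.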

[3] = effect on coagulation function in mice (ACT); type: in vivo, C57BL/6J mice; settings: 200 mg/kg tail vein once a day until Day 24, blood on Day 25; control group 73.50 ± 7.15
Method: C57BL/6J mice were used as experimental subjects (purchased from Chengdu Dashuo Experimental Animal Co., Ltd., male, weighing 16-17 g). Sterile saline or peptide drugs were injected via the tail vein once a day until Day 24. The mice in the control group were injected with sterile saline, and the mice in the administration groups (N1-N12) were injected with polypeptide drugs (200 mg/kg). There were three experimental animals in each group. On Day 25, the eyeballs were removed and blood ([…]) was taken. The coagulation function of the mice was detected by the Abbott i-STAT blood gas analyzer with the ACT test card.

[4] = test system: human non-small cell lung cancer cells (A549); assay: scratch assay, migration of A549 cells; type: cell-based; settings: A549, 10 μM, 48 hours; control group 75.31 ± 8.19
How it was run: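 Confluent A549 monolayers in 24-well plates were scratched, washed with PBS, then cultured 48 h in 2% FBS medium with peptide at 10 μM or PBS control, triplicate wells. Scratch width measured from images; migration rate (%) = (original − current width)/original width × 100.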

fibronectin = fibronectin expression in SK-HEP-1 cells (ELISA); type: cell-based, human; settings: SK-HEP-1, 10 μM, 24 hours, control group 1.62 ± 0.09
Method: (§1) SK-HEP-1 cells were cultured in vitro, cells in the logarithmic growth phase were collected, and the cells were seeded evenly in a 24-well plate at a density of 1-3×10^5 cells/well. The cells were cultured in a cell incubator for 4-5 h. PBS was added to the control group. PBS containing polypeptide or derivative thereof (N1-N12) was added to the treatment group. The final concentration of the polypeptide or derivative thereof in the well was 10 μM. After incubating for 24 hours, the cells were collected and the total protein was extracted. ELISA was used to detect the content of fibronectin in total protein.

[5] = test system: human breast cancer cells (MDA-MB-453); assay: scratch assay, migration of MDA-MB-453 cells; type: cell-based; settings: MDA-MB-453, 10 μM, 48 hours; control group 32.42 ± 2.04
How it was run: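 Confluent MDA-MB-453 monolayers were scratched, then treated with peptide at 10 μM in 2% FBS medium for 48 h, with a PBS control and triplicate wells. Migration rate (%) was taken as (original − current scratch width)/original width ×100 from images.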

[6] = test system: human breast cancer cells (MCF-7); assay: scratch assay, migration of MCF-7 cells; type: cell-based; settings: MCF-7, 10 μM, 48 hours; control group 30.97 ± 1.79
How it was run: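 MCF-7 monolayers scratched, then cultured 48 hours in 2% FBS medium with test peptide at 10 μM versus PBS control, triplicate wells. Migration rate (%) = (original − current scratch width)/original width × 100, measured from images.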

[7] = test system: human oral epidermoid carcinoma KB cells; assay: scratch assay, migration of KB cells; type: cell-based; settings: 10 μM, 48 hours, control group 54.03 ± 4.21
How it was run: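 Monolayers of KB cells were scratched, washed with PBS, then cultured 48 hours in 2% FBS medium containing test polypeptide (10 μM) or PBS control, in triplicate wells. From images, migration rate (%) = (original − current scratch width)/original width × 100.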

vimentin = vimentin expression in SK-HEP-1 cells (ELISA); type: cell-based, human; settings: SK-HEP-1, 10 μM, 24 hours, control group 1.2 ± 0.01
Method: as §1
The experimental method for testing the inhibition on the expression of vimentin in human liver adenocarcinoma cells (SK-HEP-1) by the polypeptide or derivative thereof (N1-N12) was as described in Example 19.

N-cadherin = N-cadherin expression in SK-HEP-1 cells (ELISA); type: cell-based, human; settings: SK-HEP-1, 10 μM, 24 hours, control group 1.12 ± 0.03
Method: as §1
The experimental method for testing the inhibition on the expression of N-cadherin in human liver adenocarcinoma cells (SK-HEP-1) by the polypeptide or derivative thereof (N1-N12) was as described in Example 19.

| Substance | Weight of tumor (g) (mean ± SD) [1] | Volume of tumor (mm^3) (mean ± SD) [1] | Migration rate (%) (mean ± SD, P) [2] | Activated clotting time (s) (mean ± SD) [3] | Migration rate (%) (mean ± SD, P) [4] | Relative protein level (mean ± SD, P), fibronectin (fibronectin) | Migration rate (%) (mean ± SD, P) [5] | Migration rate (%) (mean ± SD, P) [6] | Migration rate (%) (mean ± SD, P) [7] | Relative protein level (mean ± SD, P), vimentin (vimentin) | Relative protein level (mean ± SD, P), N-cadherin (N-cadherin) |
| --- | --- | --- | --- | --- | --- | --- | --- | --- | --- | --- | --- |
| N9: SEQ ID NO: 1 with deletion of positions 15-18 and PEG modification at the amino terminal ({PEG}-YRVRFLAKENVTQD; reading uncertain) | 0.72 ± 0.09 | 781.14 ± 123.66 | 35.11 ± 5.16,** % | 72.09 ± 8.07 | 56.92 ± 4.49,** % | 1.33 ± 0.09,* | 7.19 ± 2.38,*** % | 5.28 ± 2.11,*** % | 9.27 ± 2.63,*** % | 1.03 ± 0.05, ** | 0.73 ± 0.04,*** |
| N10: SEQ ID NO: 1 with deletion of positions 15-18 and 1-3 and PEG modification at the carboxyl terminal (RFLAKENVTQD-{PEG}; reading uncertain) | 0.75 ± 0.07 | 705.83 ± 182.18 | 39.45 ± 5.00,** % | 73.27 ± 7.36 | 26.86 ± 8.78,** % | 1.3 ± 0.05,** | 6.9 ± 1.65,*** % | 9.55 ± 2.72,** % | 13.87 ± 3.48,*** % | 0.88 ± 0.06, *** | 0.69 ± 0.03,**** |
| N11: SEQ ID NO: 1 with deletion of positions 15-18 and 1-3 and PEG modification at the amino terminal ({PEG}-RFLAKENVTQD; reading uncertain) | 0.73 ± 0.08 | 756.57 ± 204.03 | 53.36 ± 5.49,* % | 75.18 ± 7.99 | 30.79 ± 6.74,** % | 1.39 ± 0.01,* | 4.49 ± 1.6,*** % | 9.34 ± 3.74,** % | 8.29 ± 1.96,*** % | 0.94 ± 0.05, *** | 0.73 ± 0.04,*** |
| N12: SEQ ID NO: 1 with deletion of position 18 and positions 1-2 (VRFLAKENVTQDAED) | 0.73 ± 0.09 | 726.15 ± 144.96 | 48.01 ± 5.38,** % | 75.55 ± 7.61 | 20.05 ± 8.79,** % | 1.23 ± 0.07,** | 6.32 ± 1.78,*** % | 11.65 ± 3.32,** % | 11.53 ± 2.78,*** % | 0.71 ± 0.03, **** | 0.58 ± 0.03,*** |
